{
  "source": "patent US20240082273A1",
  "about": "“NEUROKININ INHIBITORS SUCH AS APREPITANT FOR TREATING NON SMALL CELL LUNG CARCINOMA OR BREAST CANCER WITHOUT MUTATIONS” (priority 2020, published 2024)",
  "assay_type_in_all_cases": "cell-based, human",
  "key": {"[1]": {"test_system": "lung cancer cell lines with molecular profile EGFR−/ALK−/ROS1− (A549, H358, H441, H460, H520)", "test": "MTT proliferation, NSCLC cell lines with EGFR−/ALK−/ROS1− profile", "conditions": "for Mean proliferation: 48 hours", "description": "(§1) EGFR, ALK and ROS1 are key molecular factors that may be used to determine pathological classification, prognosis, therapeutics and behaviour in patients with lung cancer. EGFR, ALK and ROS1 are biomarkers routinely analysed in the clinical practice of the management of patients with NSCLC. NSCLC with molecular profile EGFR-/ALK-/ROS1- presents a better response to treatment with the NK1 inhibitor aprepitant, compared to lung cancer with different profiles (in particular, EGFR+/ALK-/ROS1- and EGFR-/ALK+/ROS1-, in which EGFR and ALK respectively contain mutations relative to their wild type gene). Commercial lines of lung cancer were used as shown in Table 2 together with their molecular profile. The molecular profile of the cancer cell lines was determined by sequencing and can be consulted in the Cancer Cell Line Encyclopaedia database of public access available at the url: https://portals.broadinstitute.org/ccle All cells were cultured in wells under vendor-recommended conditions and exposed to different concentrations of aprepitant for 48 hours. In each case a group of wells of cells were used to which no treatment was applied and which were considered as controls. At 48 hours the number of cells was measured. Eight cell lines of human were used for the study of NK1 inhibitors (Table 3). All of them were maintained in culture in their respective culture media (Gibco,Thermo Fisher Scientific) supplemented with 10% foetal bovine serum (FBS) (Gibco, Thermo Fisher Scientific), 2 mM L-Glutamine (Gln) (Sigma-Aldrich, Merk), and […] and […] Gibco, Thermo Fisher Scientific) in a humidified incubator at 37° C. and 5% CO2. Cell culture media used are Dulbecco's Modified Eagle Medium (DMEM), and RPMI Medium 1640 (RPMI-1640). To measure cell viability, the cytotoxicity of drugs in culture was evaluated using the 3-(4,5-Dimethyl-2-thiazolyl)-2,5-diphenyl-2H-tetrazolium bromide (MTT) reduction assay. This assay assesses cell viability through the indirect measurement of the activity of reductases that convert yellow soluble MTT into purple insoluble formazan salts. As MTT can only be reduced when these enzymes are active, the reaction is used as an indicator of the cell metabolic competence and, therefore, of viability. A variable number of cells (depending on the cell line) were seeded in 96 multi-well plates and grown during 24 hours. The following day, the culture medium was aspirated and fresh culture medium with the drug dissolved was added to the wells. After 24 hours or 48 hours cell viability was measurement by adding 10 μl of a 5 mg/ml MTT solution (M5655; Sigma-Aldrich) and 100 μl of HCl 0.01M-SDS 10% solution 4 hours later. After 24 hours, the absorbance was measured at 595 nm, using a multi-well plate reader (iMark, Bio-rad). Each condition was tested 5 times, obtaining 5 values of absorbance. All sample measurements were corrected using the blank (culture medium without cells) mean absorbance value, and normalized to positive control to determinate relative cell viability for each condition at 24 and 48 hours."}, "[2]": {"test_system": "lung cancer cell lines with molecular profile EGFR−/ALK+/ROS1− (H322, H332)", "test": "MTT proliferation, NSCLC cell lines with EGFR−/ALK+/ROS1− profile", "conditions": "48 hours", "description": "as §1"}, "H460": {"test_system": "H460", "test": "MTT proliferation, H460", "conditions": "48 hours", "description": "as §1"}, "H520": {"test_system": "H520", "test": "MTT proliferation, H520", "conditions": "48 hours", "description": "as §1"}, "[3]": {"test_system": "breast cancer cell line ER+/PR+/HER2+ (BT474)", "test": "MTT proliferation, breast cancer cell line ER+/PR+/HER2+", "conditions": "48 hours", "method": "(§2) All cells were cultured in wells under vendor-recommended conditions and exposed to different concentrations of aprepitant for 48 hours. In each case a group of wells of cells were used to which no treatment was applied and which were considered as controls. At 48 hours the number of cells was measured. To measure cell viability, the cytotoxicity of drugs in culture was evaluated using the 3-(4,5-Dimethyl-2-thiazolyl)-2,5-diphenyl-2H-tetrazolium bromide (MTT) reduction assay. This assay assesses cell viability through the indirect measurement of the activity of reductases that convert yellow soluble MTT into purple insoluble formazan salts. As MTT can only be reduced when these enzymes are active, the reaction is used as an indicator of the cell metabolic competence and, therefore, of viability. A variable number of cells (depending on the cell line) were seeded in 96 multi-well plates and grown during 24 hours. The following day, the culture medium was aspirated and fresh culture medium with the drug dissolved was added to the wells. After 24 hours or 48 hours cell viability was measurement by adding 10 μl of a 5 mg/ml MTT solution (M5655; Sigma-Aldrich) and 100 μl of HCl 0.01M-SDS 10% solution 4 hours later. After 24 hours, the absorbance was measured at 595 nm, using a multi-well plate reader (iMark, Bio-rad). Each condition was tested 5 times, obtaining 5 values of absorbance. All sample measurements were corrected using the blank (culture medium without cells) mean absorbance value, and normalized to positive control to determinate relative cell viability for each condition at 24 and 48 hours."}, "[4]": {"test_system": "breast cancer cell line ER−/PR−/HER2+ (SkBr3)", "test": "MTT proliferation, breast cancer cell line ER−/PR−/HER2+", "conditions": "48 hours", "method": "as §2"}},
  "data": [
    {"smiles": "C[C@@H](O[C@H]1OCCN(Cc2nc(=O)[nH][nH]2)[C@H]1c1ccc(F)cc1)c1cc(C(F)(F)F)cc(C(F)(F)F)c1", "note": "[Aprepitant]", "values": [
      {"measurement": "inhibition at 5 µM", "setting": "[1]; Homo sapiens, concentration of 5 μM, in most cell lines (FIG. 3)", "value": "~20", "unit": "%"},
      {"measurement": "inhibition at 20 µM", "setting": "[1]; Homo sapiens, concentration of 20 μM (FIG. 3), read-out: growth inhibition", "value": 60, "unit": "%"},
      {"measurement": "Mean proliferation", "setting": "[1]; aprepitant 1 μM", "value": 98.09},
      {"measurement": "Mean proliferation", "setting": "[1]; aprepitant 3 μM", "value": 94.71},
      {"measurement": "Mean proliferation", "setting": "[1]; aprepitant 5 μM", "value": 72.82},
      {"measurement": "Mean proliferation", "setting": "[1]; aprepitant 10 μM", "value": 59.95},
      {"measurement": "Mean proliferation", "setting": "[1]; aprepitant 20 μM", "value": 42.37},
      {"measurement": "Mean proliferation", "setting": "[1]; aprepitant 30 μM", "value": 30.66},
      {"measurement": "Mean proliferation", "setting": "[1]; aprepitant 40 μM", "value": 18.72},
      {"measurement": "Mean proliferation", "setting": "[1]; aprepitant 50 μM", "value": 4.05},
      {"measurement": "Mean proliferation", "setting": "[1]; aprepitant 60 μM", "value": 4.40},
      {"measurement": "proliferation compared to control", "setting": "[1]; concentration of 5 μM, in most cell lines (FIG. 3)", "value": 80, "unit": "%"},
      {"measurement": "response to treatment versus EGFR+/ALK−/ROS1− and EGFR−/ALK+/ROS1− profiles", "setting": "[1]; in vitro, Table 4 and FIG. 2", "value": "clearly improved response"},
      {"measurement": "Mean proliferation", "setting": "[2]; aprepitant 1 μM", "value": 102.88},
      {"measurement": "Mean proliferation", "setting": "[2]; aprepitant 3 μM", "value": 92.41},
      {"measurement": "Mean proliferation", "setting": "[2]; aprepitant 5 μM", "value": 105.07},
      {"measurement": "Mean proliferation", "setting": "[2]; aprepitant 10 μM", "value": 108.06},
      {"measurement": "Mean proliferation", "setting": "[2]; aprepitant 20 μM", "value": 99},
      {"measurement": "Mean proliferation", "setting": "[2]; aprepitant 30 μM", "value": 88.22},
      {"measurement": "Mean proliferation", "setting": "[2]; aprepitant 40 μM", "value": 68.94},
      {"measurement": "Mean proliferation", "setting": "[2]; aprepitant 50 μM", "value": 37.3},
      {"measurement": "Mean proliferation", "setting": "[2]; aprepitant 60 μM", "value": 11.67},
      {"measurement": "Mean proliferation", "setting": "H460; aprepitant 1 μM", "value": 91.72},
      {"measurement": "Mean proliferation", "setting": "H460; aprepitant 3 μM", "value": 100.26},
      {"measurement": "Mean proliferation", "setting": "H460; aprepitant 5 μM", "value": 67.81},
      {"measurement": "Mean proliferation", "setting": "H460; aprepitant 10 μM", "value": 56.01},
      {"measurement": "Mean proliferation", "setting": "H460; aprepitant 20 μM", "value": 31.24},
      {"measurement": "Mean proliferation", "setting": "H460; aprepitant 30 μM", "value": 18.27},
      {"measurement": "Mean proliferation", "setting": "H460; aprepitant 40 μM", "value": 14.74},
      {"measurement": "Mean proliferation", "setting": "H460; aprepitant 50 μM", "value": "−0.95"},
      {"measurement": "Mean proliferation", "setting": "H460; aprepitant 60 μM", "value": "−1.95"},
      {"measurement": "Mean proliferation", "setting": "H520; aprepitant 1 μM", "value": 100.27},
      {"measurement": "Mean proliferation", "setting": "H520; aprepitant 3 μM", "value": 98.27},
      {"measurement": "Mean proliferation", "setting": "H520; aprepitant 5 μM", "value": 80.08},
      {"measurement": "Mean proliferation", "setting": "H520; aprepitant 10 μM", "value": 66.40},
      {"measurement": "Mean proliferation", "setting": "H520; aprepitant 20 μM", "value": 43.07},
      {"measurement": "Mean proliferation", "setting": "H520; aprepitant 30 μM", "value": 29.80},
      {"measurement": "Mean proliferation", "setting": "H520; aprepitant 40 μM", "value": 9.59},
      {"measurement": "Mean proliferation", "setting": "H520; aprepitant 50 μM", "value": 5.78},
      {"measurement": "Mean proliferation", "setting": "H520; aprepitant 60 μM", "value": "−1.07"},
      {"measurement": "Mean proliferation", "setting": "[3]; aprepitant 0.3 μM", "value": 100.88},
      {"measurement": "Mean proliferation", "setting": "[3]; aprepitant 1 μM", "value": 101.83},
      {"measurement": "Mean proliferation", "setting": "[3]; aprepitant 3 μM", "value": 91.36},
      {"measurement": "Mean proliferation", "setting": "[3]; aprepitant 10 μM", "value": 85.45},
      {"measurement": "Mean proliferation", "setting": "[3]; aprepitant 20 μM", "value": 80.23},
      {"measurement": "Mean proliferation", "setting": "[3]; aprepitant 30 μM", "value": 57.51},
      {"measurement": "Mean proliferation", "setting": "[3]; aprepitant 40 μM", "value": 43.65},
      {"measurement": "Mean proliferation", "setting": "[3]; aprepitant 50 μM", "value": 23.8},
      {"measurement": "Mean proliferation", "setting": "[3]; aprepitant 60 μM", "value": 9.29},
      {"measurement": "Mean proliferation", "setting": "[4]; aprepitant 0.3 μM", "value": 99.8},
      {"measurement": "Mean proliferation", "setting": "[4]; aprepitant 1 μM", "value": 100.23},
      {"measurement": "Mean proliferation", "setting": "[4]; aprepitant 3 μM", "value": 95.65},
      {"measurement": "Mean proliferation", "setting": "[4]; aprepitant 10 μM", "value": 81.8},
      {"measurement": "Mean proliferation", "setting": "[4]; aprepitant 20 μM", "value": 65.97},
      {"measurement": "Mean proliferation", "setting": "[4]; aprepitant 30 μM", "value": 45.14},
      {"measurement": "Mean proliferation", "setting": "[4]; aprepitant 40 μM", "value": 32.62},
      {"measurement": "Mean proliferation", "setting": "[4]; aprepitant 50 μM", "value": 23.78},
      {"measurement": "Mean proliferation", "setting": "[4]; aprepitant 60 μM", "value": 12.87}
    ]}
  ]
}
